Measured values from ChEMBL document CHEMBL1201862, “PubChem BioAssay data set” (2004).
Active and inactive are the calls of the source.

Key:
[1] = Luminescence Cell-Based Dose Retest to Confirm Inhibitors of Cancer Stem Cells. [Related pubchem assays (depositor defined):AID2717, AID2721]; type: functional; settings: Homo sapiens
[2] = viability loss of HMLE_sh_eGFP cells – cell-based, luminescence, counter-screen for HMLE_sh_ECad selective toxicity project, dose response (AID 463074); type: functional, Homo sapiens;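 further: HMLE human mammary epithelial cells expressing control shRNA against eGFP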
Escherichia coli [3] = experiment: microbe, parasite or virus in culture
Escherichia coli [4] = experiment: microbe, parasite or virus in culture; remark: listed apart in the source
[5] = biological target: T1, Dual specificity protein phosphatase 3 (Homo sapiens, UniProt P51452); experiment: SAR VHR1 Fluorescent Assay for In Vitro dose response studies. [Related pubchem assays (depositor defined):AID1654, AID1661, AID1878, AID1992, AID2004, AID2070, AID2085]; type: functional
T1 sequence (P51452 whole entry): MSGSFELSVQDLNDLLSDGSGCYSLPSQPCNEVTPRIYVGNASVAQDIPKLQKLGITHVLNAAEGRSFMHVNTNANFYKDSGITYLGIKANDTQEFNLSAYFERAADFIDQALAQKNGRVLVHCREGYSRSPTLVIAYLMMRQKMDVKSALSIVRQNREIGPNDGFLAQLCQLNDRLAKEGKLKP

[6] = biological target: T1, Dual specificity protein phosphatase 3; experiment: SAR VHR1 Fluorescent Assay for In Vitro dose response studies Set 2. [Related pubchem assays (depositor defined):AID1654, AID1661, AID1878]; type: functional
[7] = biological target: T2, Dual specificity protein phosphatase 6 (Rattus norvegicus, UniProt Q64346); type: functional
T2 sequence (Q64346 whole entry): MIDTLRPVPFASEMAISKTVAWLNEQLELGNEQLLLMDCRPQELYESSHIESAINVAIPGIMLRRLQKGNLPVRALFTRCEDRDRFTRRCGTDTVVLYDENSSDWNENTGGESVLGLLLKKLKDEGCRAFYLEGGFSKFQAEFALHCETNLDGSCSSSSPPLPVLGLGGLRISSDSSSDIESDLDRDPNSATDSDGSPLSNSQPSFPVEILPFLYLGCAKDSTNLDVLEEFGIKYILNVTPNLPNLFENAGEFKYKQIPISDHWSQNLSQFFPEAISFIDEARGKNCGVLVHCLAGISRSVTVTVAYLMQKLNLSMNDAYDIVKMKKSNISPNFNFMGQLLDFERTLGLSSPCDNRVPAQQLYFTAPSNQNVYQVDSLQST

[8] = biological target: T2, Dual specificity protein phosphatase 6; experiment: SAR analysis of inhibitors of MKP-3 - Set 2. [Related pubchem assays (depositor defined):AID1055, AID1661, AID425, AID553, AID566]; type: functional
[9] = biological target: Glucose-6-phosphate 1-dehydrogenase (Homo sapiens, UniProt P11413); experiment: inhibition of Homo sapiens G6PD, dose series – biochemical, fluorescence, selectivity assay for P. falciparum G6PD inhibitor project, dose response (AID 504792); type: functional
Chain of Glucose-6-phosphate 1-dehydrogenase (P11413 whole entry): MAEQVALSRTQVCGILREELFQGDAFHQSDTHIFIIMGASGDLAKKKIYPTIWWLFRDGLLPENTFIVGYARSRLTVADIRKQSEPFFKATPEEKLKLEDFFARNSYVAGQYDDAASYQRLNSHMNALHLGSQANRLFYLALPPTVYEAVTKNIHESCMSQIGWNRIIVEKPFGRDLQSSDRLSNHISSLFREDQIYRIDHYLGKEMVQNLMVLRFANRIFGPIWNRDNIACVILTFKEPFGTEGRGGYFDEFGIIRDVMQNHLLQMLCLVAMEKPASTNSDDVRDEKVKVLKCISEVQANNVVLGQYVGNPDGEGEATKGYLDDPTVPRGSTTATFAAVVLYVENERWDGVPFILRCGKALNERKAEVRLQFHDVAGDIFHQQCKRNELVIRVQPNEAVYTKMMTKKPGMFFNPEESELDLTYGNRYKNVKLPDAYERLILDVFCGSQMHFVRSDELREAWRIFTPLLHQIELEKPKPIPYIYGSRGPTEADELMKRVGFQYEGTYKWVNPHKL

[10] = biological target: T1, Dual specificity protein phosphatase 3; experiment: VHR phosphatase inhibition, dose response, selectivity assay for STEP inhibitor project, biochemical (AID 602374); type: functional; settings: read-out: IC50_Mean
[11] = biological target: T3, Tyrosine-protein phosphatase non-receptor type 5 (Homo sapiens, UniProt P54829); experiment: PTPN5 enzyme inhibition – biochemical, fluorescence intensity, uHTS hits, confirmation (AID 602372); type: functional; settings: read-out: IC50_Mean
T3 sequence (P54829 whole entry): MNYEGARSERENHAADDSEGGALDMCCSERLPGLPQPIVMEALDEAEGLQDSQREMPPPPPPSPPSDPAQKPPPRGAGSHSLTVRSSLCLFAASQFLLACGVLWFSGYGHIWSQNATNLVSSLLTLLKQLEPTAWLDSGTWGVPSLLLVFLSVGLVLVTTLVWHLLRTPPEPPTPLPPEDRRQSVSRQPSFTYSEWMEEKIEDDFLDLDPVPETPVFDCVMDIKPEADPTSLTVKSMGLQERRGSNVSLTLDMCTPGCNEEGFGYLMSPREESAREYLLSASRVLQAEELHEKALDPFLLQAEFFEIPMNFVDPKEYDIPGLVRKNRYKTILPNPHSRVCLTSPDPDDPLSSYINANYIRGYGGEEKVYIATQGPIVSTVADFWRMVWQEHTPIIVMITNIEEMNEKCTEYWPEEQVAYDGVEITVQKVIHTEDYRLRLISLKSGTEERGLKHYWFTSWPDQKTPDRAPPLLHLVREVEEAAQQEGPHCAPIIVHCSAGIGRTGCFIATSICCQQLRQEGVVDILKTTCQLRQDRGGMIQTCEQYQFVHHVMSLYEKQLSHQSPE

[12] = biological target: T4, Tyrosine-protein phosphatase non-receptor type 22 (Homo sapiens, UniProt Q9Y2R2); experiment: lymphoid phosphatase LYP inhibitors – biochemical, selectivity assay for STEP inhibitor project, dose response (AID 624241); type: functional
T4 sequence (Q9Y2R2 whole entry): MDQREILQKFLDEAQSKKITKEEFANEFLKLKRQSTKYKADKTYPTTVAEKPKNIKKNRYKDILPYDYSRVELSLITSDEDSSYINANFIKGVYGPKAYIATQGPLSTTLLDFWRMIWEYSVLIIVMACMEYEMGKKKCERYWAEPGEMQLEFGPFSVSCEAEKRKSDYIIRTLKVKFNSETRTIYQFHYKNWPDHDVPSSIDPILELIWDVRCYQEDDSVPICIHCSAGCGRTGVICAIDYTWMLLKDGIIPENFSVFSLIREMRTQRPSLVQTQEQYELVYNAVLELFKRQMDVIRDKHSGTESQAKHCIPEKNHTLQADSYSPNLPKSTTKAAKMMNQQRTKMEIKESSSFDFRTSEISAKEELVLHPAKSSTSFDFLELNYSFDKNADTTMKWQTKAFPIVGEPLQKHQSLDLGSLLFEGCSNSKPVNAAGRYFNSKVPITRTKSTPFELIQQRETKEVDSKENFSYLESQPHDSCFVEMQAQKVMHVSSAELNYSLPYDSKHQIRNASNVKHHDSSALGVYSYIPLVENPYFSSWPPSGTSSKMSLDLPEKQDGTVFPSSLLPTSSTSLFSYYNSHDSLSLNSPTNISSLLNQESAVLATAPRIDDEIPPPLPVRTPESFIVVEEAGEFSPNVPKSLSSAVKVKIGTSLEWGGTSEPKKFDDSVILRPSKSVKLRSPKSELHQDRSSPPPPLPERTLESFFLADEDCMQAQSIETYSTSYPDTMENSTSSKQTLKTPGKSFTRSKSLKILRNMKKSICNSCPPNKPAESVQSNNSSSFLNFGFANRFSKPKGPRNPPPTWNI

[13] = biological target: T5, Tyrosine-protein phosphatase non-receptor type 7 (Homo sapiens, UniProt P35236); experiment: SAR analysis of chemical inhibitors of HePTP using a Fluorescent assay - Set 2. [Related pubchem assays (depositor defined):AID1059, AID1077, AID1661, AID2085, AID521]; type: functional
T5 sequence (P35236 whole entry): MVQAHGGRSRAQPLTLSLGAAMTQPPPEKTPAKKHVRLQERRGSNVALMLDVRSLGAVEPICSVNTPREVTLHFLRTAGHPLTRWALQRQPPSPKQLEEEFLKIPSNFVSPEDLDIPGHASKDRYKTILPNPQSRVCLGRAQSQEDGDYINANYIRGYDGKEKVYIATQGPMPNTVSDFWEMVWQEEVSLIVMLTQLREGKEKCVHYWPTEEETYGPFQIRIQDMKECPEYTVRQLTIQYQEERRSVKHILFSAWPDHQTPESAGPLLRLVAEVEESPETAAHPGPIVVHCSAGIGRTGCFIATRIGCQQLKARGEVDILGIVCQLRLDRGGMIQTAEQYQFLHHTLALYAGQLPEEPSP

[14] = biological target: T1, Dual specificity protein phosphatase 3; experiment: SAR VHR1 absorbance Assay for In Vitro dose response studies. [Related pubchem assays (depositor defined):AID1654, AID1661, AID1878, AID1992, AID2004]
[15] = biological target: T1, Dual specificity protein phosphatase 3; experiment: VHR1 phosphatase inhibitors, primary screen, biochemical, absorbance, uHTS (AID 1654)
[16] = biological target: T5, Tyrosine-protein phosphatase non-receptor type 7; experiment: redox-active compounds inhibiting HePTP phosphatase – biochemical, fluorescence, mechanism study (AID 2068); type: functional
[17] = biological target: T6, Tyrosine-protein phosphatase non-receptor type 11 (Homo sapiens, UniProt Q06124); experiment: PTPN11 enzyme inhibitors – biochemical, selectivity assay for STEP inhibitor project, dose response (AID 602367); type: functional; settings: read-out: IC50_Mean
T6 sequence (Q06124 whole entry): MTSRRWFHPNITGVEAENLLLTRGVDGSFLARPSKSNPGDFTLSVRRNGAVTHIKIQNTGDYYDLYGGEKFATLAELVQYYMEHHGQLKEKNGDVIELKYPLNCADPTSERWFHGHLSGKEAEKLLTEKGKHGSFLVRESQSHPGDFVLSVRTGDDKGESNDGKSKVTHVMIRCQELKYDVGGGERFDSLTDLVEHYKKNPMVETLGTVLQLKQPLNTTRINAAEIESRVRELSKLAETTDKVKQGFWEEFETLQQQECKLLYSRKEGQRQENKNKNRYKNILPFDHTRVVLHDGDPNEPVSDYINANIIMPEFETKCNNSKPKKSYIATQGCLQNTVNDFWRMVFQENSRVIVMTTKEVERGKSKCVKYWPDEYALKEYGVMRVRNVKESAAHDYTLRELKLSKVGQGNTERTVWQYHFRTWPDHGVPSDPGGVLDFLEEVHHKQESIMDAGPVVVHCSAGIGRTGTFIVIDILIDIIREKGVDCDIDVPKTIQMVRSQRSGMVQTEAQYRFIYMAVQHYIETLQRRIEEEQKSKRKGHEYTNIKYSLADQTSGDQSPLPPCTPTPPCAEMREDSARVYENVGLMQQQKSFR

[18] = biological target: T2, Dual specificity protein phosphatase 6; experiment: inhibition of rat DUSP6 enzyme activity – biochemical, in vitro, primary screen (AID 425)
[19] = biological target: T1, Dual specificity protein phosphatase 3; experiment: VHR1 phosphatase inhibitors, biochemical (AID 1878)
[20] = biological target: T1, Dual specificity protein phosphatase 3; experiment: SAR VHR1 Fluorescent Assay for In Vitro dose response studies Set 3. [Related pubchem assays (depositor defined):AID1654, AID1661, AID1878]; type: functional
[21] = Fluorescence polarization-based biochemical high throughput dose response assay for activators of the Protein Kinase A-R2B (PKA-R2B) complex. [Related pubchem assays (depositor defined):AID504700, AID504704, AID504796, AID504797]
[22] = Fluorescence polarization-based biochemical high throughput dose response assay for activators of the Protein Kinase A-R1A (PKA-R1A) complex. [Related pubchem assays (depositor defined):AID504704, AID504707, AID504799, AID504800]

COc1ccccc1N=C(S)N=Nc1c(O)[nH]c2ccc(Br)cc12
active: AC50 [1] 0.739 µM | AC50 [2] 31.4 µM

Cc1ccccc1C(=O)N1CCC(C(=O)NC(C)c2ccc(-n3ccnc3)cc2)CC1 (configuration not stated)
active: AC50 (Escherichia coli [3]) 69.2 µM | AC50 (Escherichia coli [4]) 24.5 µM

COc1ccc(NC(=S)N(CCC(C)C)C2CCN(C(C)C)CC2)cc1Cl
active: IC50 [6] 0.216 µM | IC50 [10] 0.271 µM | IC50 [11] 3.86 µM | IC50 [13] 0.662 µM | IC50 [14] 1.26 µM | IC50 [15] 2.09 µM | IC50 [16] < 0.195 µM | IC50 [17] 0.676 µM | IC50 [19] 4.01 µM
inactive: IC50 [5] > 99 µM | IC50 [7] > 99 µM | IC50 [8] > 100 µM | IC50 [9] > 80 µM | IC50 [12] 21 µM
> 158 µM (not active): IC50 [18]

O=C(Nc1ccc(-c2nc3ccccc3s2)cc1)c1cc(-n2cnnc2)ccc1Cl
active: IC50 [20] 12.1 µM

Nc1ncnc2c1nc(Br)n2[C@@H]1O[C@@H]2COP(=O)(O)O[C@H]2[C@H]1O
active: EC50 [21] 0.0511 µM | EC50 [22] 0.0344 µM
